The target in this experiment is butyrylcholinesterase (BuChE). Put plainly: modified Ellman photometric anti-cholinesterase assay. The format is biochemical. (DTNB colorimetry detects thiols as they appear.)

The term IC50 denotes the concentration at which inhibition is half-maximal. Low values mean greater potency in that assay, high ones weaker potency in that assay.

Take `CCC[C@H](O)CCCCCC[C@H]1CCC[C@@H]2N[C@H](C)[C@H](OC(=O)/C=C/SC)C[C@H]12` [compound 1, lepadin I]: the IC50 came out at 3.1 µM.

For the origin of these results see publication PMC6486817 (The Journal of organic chemistry, 2018).
